66 molecules from US8404683B2, “Inhibitors of the interaction between MDM2 and P53” (Janssen Pharmaceutical N.V., priority 2004, dated 2013) can be followed below.

The structures appear in SMILES notation.

In this assay the test system is U87MG cells. Briefly: Proliferation assay (MTT-based) on U87MG tumour cells. Conditions: Homo sapiens, U-87 MG, 96 h, 4 days of incubation, negative log value of the IC50-value, read-out: cell proliferation pIC50 (converted). The procedure: U87MG cells are human glioblastoma cells with wild type p53. In this cell line MDM2 tightly controls p53 expression.
Cellular activity of the compounds of formula (I) was determined on U87MG tumour cells using a colorimetric assay for cell toxicity or survival (see example C.2).
All compounds tested were dissolved in DMSO and further dilutions were made in culture medium. Final DMSO concentrations never exceeded 0.1% (v/v) in cell proliferation assays. Controls contained U87MG cells and DMSO without compound and blanks contained DMSO but no cells.
U87MG cells were seeded in 96-well cell culture plates at 3000 cells/well/100 μl. 24 hours later, medium was changed and compound and/or solvent were added to a final volume of 200 μl. Following 4 days of incubation, medium was replaced by 200 μl fresh medium and cell growth was assessed using a MTT-based assay. Therefore, 25 μl of the MTT solution (0.5% MTT research grade from Serva in phosphate-buffered saline) was added to each well and the cells were further incubated for 2 hours at 37° C. The medium was then carefully aspirated and the blue MTT-formazan product was dissolved by adding to each well 25 μl 0.1 M glycin and 100 μl DMSO. The plates were shaken for another 10 min on a micro plate shaker before reading absorbance at 540 nm by a Biorad micro plate reader.
Within an experiment, the results for each experimental condition are the mean of 3 replicate wells. For initial screening purposes, compounds were tested at a single fixed concentration of 10^−5 M. For active compounds, the experiments were repeated to establish full concentration-response curves. For each experiment, controls (containing no drug) and a blank incubation (containing no cells or drugs) were run in parallel. The blank value was subtracted from all control and sample values. For each sample, the mean value for cell growth (in absorbance units) was expressed as a percentage of the mean value for cell growth of the control. When appropriate, IC50-values (concentration of the drug, needed to reduce cell growth to 50% of the control) were computed using probit analysis for graded data (Finney, D. J., Probit Analyses, 2nd Ed. Chapter 10, Graded Responses, Cambridge University Press, Cambridge 1962). Herein the effects of test compounds are expressed as pIC50 (the negative log value of the IC50-value) (see table F-2).
For `COCc1cc(Nc2ccc(NCCc3c[nH]c4ccccc34)cc2)ccn1` [Compound 64], the IC50 was 398 nM.

Consider `Cc1cccc2c(CCNc3ccc(Nc4ccncc4)cc3)c[nH]c12` [Compound 187], for which the IC50 was 398 nM.

`Cc1cc(Nc2ccc(NCCc3c[nH]c4ccccc34)cc2)c2cc(CO)ccc2n1` [Compound 19]: the IC50 is 200 nM.

For the molecule `c1ccc2c(CCCCNc3ccc(Nc4ccncc4)cc3)c[nH]c2c1` [Compound 74], the IC50 is 1580 nM.

Turning to `c1ccc2c(CNCc3ccc(Nc4ccncc4)cc3)c[nH]c2c1` [Compound 79], the IC50 was 2510 nM.

For the molecule `NC(=O)C(Cc1c[nH]c2ccccc12)Nc1ccc(Nc2ccnc3ccccc23)cc1` (stereo not drawn) [Compound 18], the IC50 was 501 nM.

Consider `O=C(C(Cc1c[nH]c2ccccc12)Nc1ccc(Nc2ccncc2)cc1)N1CCN(CCOCCO)CC1` (stereo not drawn) [Compound 116], for which the IC50 was over 10000 nM.

`O=C(C(Cc1c[nH]c2ccccc12)Nc1ccc(Nc2ccncc2)cc1)N1CCC(CCCO)CC1` (stereo not drawn) [Compound 217]: the IC50 was 3980 nM.

For `CC(NCCO)c1cc(Nc2ccc(NCCc3c[nH]c4ccccc34)cc2)ccn1` (stereo not drawn) [Compound 147], the IC50 is 5010 nM.

On to `CC(NCCc1ccccc1)c1cc(Nc2ccc(NCCc3c[nH]c4ccccc34)cc2)ccn1` (stereo not drawn) [Compound 145], for which the IC50 was 2510 nM.

Take `COc1ccc2c(CCNc3ccc(Nc4ccnc(CO)c4)cc3OC)c[nH]c2c1` [Compound 181]: the IC50 was 251 nM.

For the molecule `Clc1cccc2[nH]cc(CCNc3ccc(Nc4ccncc4)cc3)c12` [Compound 186], the IC50 was 1000 nM.

In the case of `c1ccc2c(CCNCCc3ccc(Nc4ccncc4)cc3)c[nH]c2c1` [Compound 75], the IC50 was 3160 nM.

For `N#CCCNCc1cc(Nc2ccc(NCCc3c[nH]c4ccccc34)cc2)ccn1` [Compound 162], the IC50 is 3160 nM.

In the case of `Clc1ccc2c(CCNc3ccc(Nc4ccnc5ccccc45)cc3)c[nH]c2c1` [Compound 26], the IC50 was 100 nM.

With `COc1ccc2[nH]cc(CCNc3ccc(Nc4ccncc4)cc3)c2c1` [Compound 62], the IC50 was 2510 nM.

In the case of `CC(NCCN)c1cc(Nc2ccc(NCCc3c[nH]c4ccccc34)cc2)ccn1` (stereo not drawn) [Compound 89], the IC50 was 3980 nM.

Take `COc1ccc2c(CCNc3ccc(Nc4ccnc5ccccc45)cc3)c[nH]c2c1` [Compound 13]: the IC50 is 25.1 nM.

As to `COc1cccc2[nH]cc(CCNc3ccc(Nc4ccncc4)cc3)c12` [Compound 191], the IC50 is 3160 nM.

As for `OCc1cc(Nc2ccc(NCCc3c[nH]c4ccccc34)cc2)cc(CO)n1` [Compound 135], the IC50 was 1000 nM.

Regarding `c1ccc(CCNCc2cc(Nc3ccc(NCCc4c[nH]c5ccccc45)cc3)ccn2)cc1` [Compound 163], the IC50 was 3160 nM.

As to `c1ccc2c(CCCNCc3ccc(Nc4ccncc4)cc3)c[nH]c2c1` [Compound 72], the IC50 is 2000 nM.

Regarding `O=C(C(Cc1c[nH]c2ccccc12)Nc1ccc(Nc2ccncc2)cc1)N(CCO)Cc1ccccc1` (stereo not drawn) [Compound 214], the IC50 is over 10000 nM.

For `Clc1cccc(CC(CNc2ccc(Nc3ccncc3)cc2)c2c[nH]c3ccccc23)c1` (stereo not drawn) [Compound 199], the IC50 is 2000 nM.

As for `O[C@@H]1CCc2c(Nc3ccc(NCCc4c[nH]c5ccccc45)cc3)ccnc21` [Compound 195], the IC50 was 79.4 nM.

Consider `CCc1cc(Nc2ccc(NCCc3c[nH]c4ccccc34)cc2)c2ccccc2n1` [Compound 33], for which the IC50 was 63.1 nM.

For the molecule `COc1cc(Nc2ccncc2)ccc1NCCc1c[nH]c2ccccc12` [Compound 66], the IC50 was 63.1 nM.

As for `CC(=O)c1cc(Nc2ccc(NCCc3c[nH]c4ccccc34)cc2)ccn1` [Compound 105], the IC50 was 7940 nM.

As to `Clc1cc(Nc2ccncc2)ccc1NCCc1c[nH]c2ccccc12` [Compound 45], the IC50 was 1000 nM.

For the molecule `Cc1ccc2[nH]cc(CCNc3ccc(Nc4ccnc(CO)c4)cc3)c2c1` [Compound 189], the IC50 was 3160 nM.

As to `O=C(c1ccccc1)c1cc(Nc2ccc(NCCc3c[nH]c4ccccc34)cc2)ccn1` [Compound 56], the IC50 is 2510 nM.

Turning to `OCCc1cc(Nc2ccc(NCCc3c[nH]c4ccccc34)cc2)ccn1` [Compound 51], the IC50 was 316 nM.

For `Cn1cc(CCNc2ccc(Nc3ccnc4ccccc34)cc2)c2ccccc21` [Compound 28], the IC50 is 200 nM.

With `CCC(O)c1cnccc1Nc1ccc(NCCc2c[nH]c3ccccc23)cc1` (stereo not drawn) [Compound 127], the IC50 was 7940 nM.

In the case of `CN(CCO)C(=O)C(Cc1c[nH]c2ccccc12)Nc1ccc(Nc2ccncc2)cc1` (stereo not drawn) [Compound 213], the IC50 was over 10000 nM.

`c1ccc2c(CCNc3ccc(Nc4ccnc(CN5CCOCC5)c4)cc3)c[nH]c2c1` [Compound 159]: the IC50 was 3160 nM.

On to `c1cncc(Nc2ccc(NCCc3c[nH]c4ccccc34)cc2)c1` [Compound 6], for which the IC50 is 3160 nM.

With `CS(=O)(=O)NCc1cc(Nc2ccc(NCCc3c[nH]c4ccccc34)cc2)ccn1` [Compound 129], the IC50 was 2000 nM.

As to `c1ccc(CCCOCc2cc(Nc3ccc(NCCc4c[nH]c5ccccc45)cc3)ccn2)cc1` [Compound 171], the IC50 is over 10000 nM.

In the case of `c1cncc(CNc2ccc(NCCc3c[nH]c4ccccc34)cc2)c1` [Compound 121], the IC50 is over 10000 nM.

Turning to `c1ccc2c(CCCN(CCCc3c[nH]c4ccccc34)Cc3ccc(Nc4ccncc4)cc3)c[nH]c2c1` [Compound 73], the IC50 was 501 nM.

`Cc1ccc2c(CCNc3ccc(Nc4ccncc4)cc3)c[nH]c2c1` [Compound 183]: the IC50 is 501 nM.

On to `c1ccc2c(Nc3ccc(NCCc4c[nH]c5ccccc45)cc3)ccnc2c1` [Compound 1], for which the IC50 was under 10 nM.

As to `COc1cc(Nc2ccnc3ccccc23)ccc1NCCc1c[nH]c2ccccc12` [Compound 16], the IC50 was 39.8 nM.

As to `CC(NCCCCO)c1cc(Nc2ccc(NCCc3c[nH]c4ccccc34)cc2)ccn1` (stereo not drawn) [Compound 100], the IC50 was 3980 nM.

Consider `OC(c1cc(Nc2ccc(NCCc3c[nH]c4ccccc34)cc2)ccn1)C1CC1` (stereo not drawn) [Compound 136], for which the IC50 was 2000 nM.

As for `CC(CO)(CO)C1CCN(C(=O)C(Cc2c[nH]c3ccccc23)Nc2ccc(Nc3ccncc3)cc2)CC1` (stereo not drawn) [Compound 221], the IC50 is 3980 nM.

Consider `CC(O)C1CCN(C(=O)C(Cc2c[nH]c3ccccc23)Nc2ccc(Nc3ccncc3)cc2)CC1` (stereo not drawn) [Compound 225], for which the IC50 is 158 nM.

For `OC(c1ccccc1)c1cc(Nc2ccc(NCCc3c[nH]c4ccccc34)cc2)ccn1` (stereo not drawn) [Compound 57], the IC50 is 794 nM.

Regarding `CNCc1cc(Nc2ccc(NCCc3c[nH]c4ccccc34)cc2)ccn1` [Compound 154], the IC50 is 3160 nM.

For `Clc1cc(Nc2ccc(NCCc3c[nH]c4ccccc34)cc2)ccn1` [Compound 103], the IC50 is 3980 nM.

Turning to `CC(C)C(O)c1cc(Nc2ccc(NCCc3c[nH]c4ccccc34)cc2)ccn1` (stereo not drawn) [Compound 137], the IC50 was 3160 nM.

Regarding `Cc1cc(Nc2ccc(NCCc3c[nH]c4ccccc34)cc2)c2ccccc2n1` [Compound 12], the IC50 is 12.6 nM.

As to `CC(C)(C)OC(=O)N(CCc1cn(C(=O)OC(C)(C)C)c2ccccc12)c1ccc(N(c2ccncc2)c2ccncc2)cc1` [Compound 227], the IC50 is 7940 nM.

For `c1ccc2c(CCNc3ccc(Nc4ccnc(CNCCN5CCNCC5)c4)cc3)c[nH]c2c1` [Compound 95], the IC50 was 7940 nM.

Turning to `COc1ccc2nc(C)cc(Nc3ccc(NCCc4c[nH]c5ccccc45)cc3)c2c1` [Compound 20], the IC50 was 100 nM.

For the molecule `N#CCNCc1cc(Nc2ccc(NCCc3c[nH]c4ccccc34)cc2)ccn1` [Compound 157], the IC50 is 1580 nM.

As for `OCc1cc(Nc2ccc(NCCc3c[nH]c4cc(F)ccc34)cc2)ccn1` [Compound 193], the IC50 was 1000 nM.

With `CCOc1cc(Nc2ccnc3c2CCCC3O)ccc1NCCc1c[nH]c2cc(OC)ccc12` (stereo not drawn) [Compound 197], the IC50 was 251 nM.

As for `c1ccc2c(CCNc3ccc(Nc4ccnc(CN5CCNCC5)c4)cc3)c[nH]c2c1` [Compound 91], the IC50 is 2510 nM.

`CCN(CCCCO)C(=O)C(Cc1c[nH]c2ccccc12)Nc1ccc(Nc2ccncc2)cc1` (stereo not drawn) [Compound 212]: the IC50 was 1580 nM.

Consider `c1ccc2c(CCNc3ccc(N(c4ccncc4)c4ccncc4)cc3)c[nH]c2c1` [Compound 228], for which the IC50 is 7940 nM.

In the case of `OCC(Cc1c[nH]c2ccccc12)Nc1ccc(Nc2ccncc2)cc1` (stereo not drawn) [Compound 48], the IC50 is 158 nM.

In the case of `O=C(c1cc(Nc2ccc(NCCc3c[nH]c4ccccc34)cc2)ccn1)C1CC1` [Compound 204], the IC50 is 7940 nM.

Take `c1ccc2c(CCNc3ccc(Nc4ccnnc4)cc3)c[nH]c2c1` [Compound 119]: the IC50 is over 10000 nM.

Consider `CCOc1cc(Nc2ccnc(C(C)O)c2)ccc1NCCc1c[nH]c2cc(OC)ccc12` (stereo not drawn) [Compound 205], for which the IC50 was 794 nM.
